Measurements reported in patent publication US7910602B2 (Sanofi-Aventis, priority 2005, dated 2011).

Target: T1, GRK2 (βARK-1) (Homo sapiens, UniProt P25098)
T1 sequence (P25098 1-689): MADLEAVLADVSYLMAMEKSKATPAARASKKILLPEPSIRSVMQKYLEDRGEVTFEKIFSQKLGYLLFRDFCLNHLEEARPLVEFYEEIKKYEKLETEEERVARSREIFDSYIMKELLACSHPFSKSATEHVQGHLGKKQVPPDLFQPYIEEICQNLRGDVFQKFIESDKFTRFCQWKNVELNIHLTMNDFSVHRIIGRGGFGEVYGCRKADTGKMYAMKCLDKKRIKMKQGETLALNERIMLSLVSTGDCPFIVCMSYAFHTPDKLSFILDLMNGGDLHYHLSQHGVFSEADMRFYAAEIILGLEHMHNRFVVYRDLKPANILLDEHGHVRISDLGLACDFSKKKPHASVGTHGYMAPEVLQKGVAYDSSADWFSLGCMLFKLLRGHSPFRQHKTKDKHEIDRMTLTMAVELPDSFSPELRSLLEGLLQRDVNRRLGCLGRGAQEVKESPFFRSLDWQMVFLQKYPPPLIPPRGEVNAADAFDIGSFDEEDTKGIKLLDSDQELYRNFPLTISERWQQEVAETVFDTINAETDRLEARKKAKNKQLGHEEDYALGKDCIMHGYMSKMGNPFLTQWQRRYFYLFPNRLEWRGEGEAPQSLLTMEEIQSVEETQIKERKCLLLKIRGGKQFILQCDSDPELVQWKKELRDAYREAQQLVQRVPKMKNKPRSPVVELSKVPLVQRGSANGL
Assay: GRK2 (βARK-1) kinase assay: 33P phosphorylation of biotinylated bovine tubulin dimers, scintillation counting
Type: biochemical
Details: 100 nM GRK2 pre-incubated with inhibitor 30 min at room temperature; 250 nM tubulin, 3 μM ATP, [γ-33P]-ATP, 30 min reaction
Method: The assay determines phosphorylation of biotinylated bovine tubulin dimers (250 nM; TEBU-BIO, # T333) coated to 384 well StreptaWell plates by 100 nM GRK2 which has been pre-incubated with inhibitor cpd. for 30 minutes at room temperature in assay buffer (20 mM Tris-HCl pH 7.4, 2 mM EDTA) containing 2.25% DMSO. The phosphorylation reaction was started by adding tubulin, MgCl2 (10 mM), ATP (3 μM), [γ-^33P]-ATP (0.4 μCi/40 μl) to the preincubated GRK2/compound complex. Then the assay mix was incubated for 30 min at room temperature before the kinase reaction was stopped adding 0.8% BSA, 0.8% Triton X 100, 80 mM EDTA and 400 μM ATP) followed by an 2-24 h incubation at +4° C. Due to the high energy of the […] free ^33P-ATP is removed by a washing step (3× with 100 μl 1×PBS pH 8.0) using a Tecan Power washer 384 to reduce background activity. Bound ^33P is determined by scintillation counting (60 μl scintillator, Ultimagold MV, 30 sec mix) using a Microbeta-counter (delay time 30 min).

| Compound | IC50 [nM] |
| --- | --- |
| NC(=O)c1cc(-c2cccc(O)c2)c2cn[nH]c2n1 [Example 16] | 2100 |
| Cn1cc(-c2cc(C(N)=O)nc3[nH]ncc23)c2cc(OCC(N)=O)ccc21 [Example 8, 4-(5-Carbamoylmethoxy-1-methyl-1H-indol-3-yl)-1H-pyrazolo[3,4-b]pyridine-6-carboxylic acid amide] | 20 |
| Cn1cc(-c2cc(C(N)=O)nc3[nH]ncc23)c2cc(OCC3CCCNC3)ccc21 (stereo not shown) [Example 3, 4-(1-methyl-5-(piperidin-3-ylmethoxy)-1H-indol-3-yl)-1H-pyrazolo(3,4-b)pyridine-6-carboxylic acid amide] | 700 |
| Cn1cc(-c2cc(C(N)=O)nc3[nH]ncc23)c2ccccc21 [Example 4] | 270 |
